In DBAASP:
Values after ≈ are worked out from the molar mass of the structure shown. One block for each molecule: values may come before it.

Key:
Assay in all cases: ≥ marks a high value that may be exact or a test limit, other limits are often not marked, values filed in µg/mL are converted to µM
[1] = test system: Bacillus subtilis KCTC 3068
[2] = test system: Escherichia coli KCTC 1682
[3] = test system: Pseudomonas aeruginosa KCTC 1637
[4] = test system: Salmonella typhimurium KCTC 1926
[5] = test system: Staphylococcus aureus KCTC 1916
[6] = test system: Staphylococcus epidermidis KCTC 1917
Escherichia coli JM109 = test system: Escherichia coli JM109
[7] = test system: Staphylococcus aureus ATCC 6538P
Staphylococcus aureus = test system: Staphylococcus aureus
[8] = test system: Aspergillus flavus KCTC 7375
[9] = test system: Bacillus megaterium KCTC 1096
[10] = test system: Bacillus subtilis KCTC 1918
[11] = test system: Candida albicans KCTC 7121
[12] = test system: Fusarium oxysporum KCTC 6084
Proteus vulgaris = test system: Proteus vulgaris
[13] = test system: Staphylococcus aureus KCTC 1621
[14] = test system: Trichosporon beigelii KCTC 7251
Escherichia coli BL21AI = test system: Escherichia coli BL21AI
[15] = test system: Micrococcus luteus ATCC 10240
[16] = test system: Streptococcus pyogenes KCTC 3096
[17] = test system: Bacillus anthracis Sterne 34F2
[18] = test system: Bacillus subtilis var. niger ATCC 9372
Escherichia coli K91BK = test system: Escherichia coli K91BK
Bacillus subtilis 168 = test system: Bacillus subtilis 168
[19] = test system: Micrococcus luteus CCM 144
Staphylococcus aureus MR = test system: Staphylococcus aureus MR
[20] = test system: Staphylococcus aureus MU50
[21] = test system: Staphylococcus aureus VRSA1
[22] = test system: Mycobacterium tuberculosis H37Rv
[23] = test system: Streptococcus pneumoniae ATCC 49619

Structure (SMILES): CC[C@H](C)[C@H](NC(=O)[C@H](CCCN=C(N)N)NC(=O)[C@H](CC(C)C)NC(=O)[C@H](CCC(N)=O)NC(=O)[C@H](CCCCN)NC(=O)[C@H](CC(C)C)NC(=O)[C@H](CC(C)C)NC(=O)[C@H](CC(C)C)NC(=O)[C@@H](NC(=O)[C@H](CCCCN)NC(=O)[C@H](CC(=O)O)NC(=O)[C@H](C)NC(=O)[C@@H](NC(=O)[C@H](CCCCN)NC(=O)[C@@H](N)CCCCN)C(C)C)C(C)C)C(=O)N[C@@H](CCSC)C(=O)N[C@@H](CCCN=C(N)N)C(=O)N[C@@H](CC(C)C)C(=O)O [KKVADKVLLLKQLRIMRL]
MIC [1]: 2 µM (≈ 4.33 µg/mL) | MIC [2]: 16 µM (≈ 34.7 µg/mL) | MIC [3]: ≥ 32 µM | MIC [4]: ≥ 64 µM | MIC [5]: 8 µM (≈ 17.3 µg/mL) | MIC [6]: ≥ 32 µM

Structure (SMILES): CC[C@H](C)[C@H](NC(=O)[C@H](C)NC(=O)[C@H](CC(C)C)NC(=O)[C@H](CS)NC(=O)[C@H](CCCN=C(N)N)NC(=O)[C@H](C)NC(=O)[C@H](C)NC(=O)[C@H](CS)NC(=O)[C@@H](N)CC(C)C)C(=O)NCC(=O)N[C@@H](CCCN=C(N)N)C(=O)N[C@@H](CCCN=C(N)N)C(N)=O [LCAARCLAIGRR]
MIC (Escherichia coli JM109): 24.6 µM (≈ 32 µg/mL) | MIC [7]: 5.76 µM (≈ 7.49 µg/mL) | MIC (Staphylococcus aureus): > 49.1 µM

Structure (SMILES): CC(=O)N[C@@H](CCCCN)C(=O)N[C@@H](CC(C)C)C(=O)N[C@@H](Cc1c[nH]c2ccccc12)C(=O)N[C@@H](CCCCN)C(=O)N[C@@H](CCCCN)C(=O)N[C@@H](Cc1c[nH]c2ccccc12)C(=O)N[C@@H](CCCCN)C(=O)N[C@@H](CCCCN)C(=O)N[C@@H](Cc1c[nH]c2ccccc12)C(=O)N[C@@H](CCCCN)C(=O)N[C@@H](CCCCN)C(N)=O [KLWKKWKKWKK]
MIC [17]: ≥ 100 µM | MIC [18]: 25 µM (≈ 40.7 µg/mL) | MIC (Escherichia coli K91BK): ≥ 100 µM

Structure (SMILES): CC[C@H](C)[C@H](NC(=O)CNC(C)=O)C(=O)NCC(=O)N[C@@H](CCCCN)C(=O)N[C@@H](Cc1ccccc1)C(=O)N[C@@H](CC(C)C)C(=O)N[C@@H](CCCCN)C(=O)N[C@@H](CCCCN)C(=O)N[C@@H](C)C(=O)N[C@@H](CCCCN)C(=O)N[C@@H](CCCCN)C(=O)N[C@@H](Cc1ccccc1)C(=O)NCC(=O)N[C@@H](CCCCN)C(=O)N[C@@H](C)C(=O)N[C@@H](Cc1ccccc1)C(=O)N[C@H](C(=O)N[C@@H](CCCCN)C(=O)N[C@H](C(=O)N[C@@H](CC(C)C)C(=O)N[C@@H](CCCCN)C(=O)N[C@@H](CCCCN)C(N)=O)[C@@H](C)CC)C(C)C [GIGKFLKKAKKFGKAFVKILKK]
MIC [17]: 25 µM (≈ 63 µg/mL) | MIC [18]: 1.56 µM (≈ 3.93 µg/mL) | MIC (Escherichia coli K91BK): ≥ 100 µM

Structure (SMILES): NCCCC[C@H](NC(=O)CNC(=O)CNC(=O)[C@H](CCCCN)NC(=O)[C@H](CCCCN)NC(=O)[C@H](Cc1cnc[nH]1)NC(=O)[C@H](CS)NC(=O)[C@H](CCC(N)=O)NC(=O)[C@H](CCCCN)NC(=O)[C@@H](N)Cc1ccc(O)cc1)C(=O)N[C@@H](CCCCN)C(=O)NCC(=O)N[C@@H](CO)C(=O)NCC(N)=O [YKQCHKKGGKKGSG]
MIC [22]: ≥ 300 µM | MIC [23]: ≥ 300 µM

Now from value to molecule:

MIC [8]: ≥ 100 µM | MIC [9]: 1.56 µM (≈ 3.01 µg/mL) | MIC [10]: 0.78 µM (≈ 1.51 µg/mL) | MIC [11]: ≥ 100 µM | MIC [2]: 12.5 µM (≈ 24.1 µg/mL) | MIC [12]: ≥ 100 µM | MIC (Proteus vulgaris): 1.56 µM (≈ 3.01 µg/mL) | MIC [3]: 1.56 µM (≈ 3.01 µg/mL) | MIC [13]: 3.12 µM (≈ 6.03 µg/mL) | MIC [14]: ≥ 100 µM
Structure (SMILES): CC[C@H](C)[C@H](NC(=O)[C@H](CCCCN)NC(=O)[C@H](CCCCN)NC(=O)[C@H](Cc1ccccc1)NC(=O)[C@@H](N)Cc1c[nH]c2ccccc12)C(=O)N1CCC[C@H]1C(=O)N[C@@H](CCCCN)C(=O)N[C@@H](Cc1ccccc1)C(=O)N[C@@H](CC(C)C)C(=O)N[C@@H](Cc1cnc[nH]1)C(=O)N[C@@H](CC(C)C)C(=O)N[C@@H](C)C(=O)N[C@@H](CCCCN)C(=O)N[C@@H](CCCCN)C(=O)N[C@@H](Cc1ccccc1)C(N)=O [WFKKIPKFLHLAKKF]

MIC (Escherichia coli BL21AI): 1.91 µM (≈ 3.91 µg/mL) | MIC [15]: 15.2 µM (≈ 31.2 µg/mL)
Structure (SMILES): CC[C@H](C)[C@H](NC(=O)[C@H](CCCN=C(N)N)NC(=O)[C@@H]1CCCN1C(=O)[C@H](Cc1cnc[nH]1)NC(=O)[C@@H]1CCCN1C(=O)[C@@H]1CCCN1C(=O)[C@H](CCCN=C(N)N)NC(=O)[C@@H]1CCCN1C(=O)[C@H](CCC(N)=O)NC(=O)[C@@H]1CCCN1C(=O)[C@@H](NC(=O)[C@H](Cc1ccc(O)cc1)NC(=O)[C@@H](NC(=O)[C@@H]1CCCN1C(=O)[C@H](CCCN=C(N)N)NC(=O)[C@H](CC(N)=O)NC(=O)[C@@H](N)CC(N)=O)C(C)C)[C@@H](C)CC)C(N)=O [NNRPVYIPQPRPPHPRI]

MIC [8]: ≥ 200 µM | MIC [9]: 1.56 µM (≈ 2.78 µg/mL) | MIC [10]: 0.78 µM (≈ 1.39 µg/mL) | MIC [11]: ≥ 200 µM | MIC [2]: 12.5 µM (≈ 22.3 µg/mL) | MIC [12]: ≥ 200 µM | MIC (Proteus vulgaris): 3.12 µM (≈ 5.57 µg/mL) | MIC [3]: 3.12 µM (≈ 5.57 µg/mL) | MIC [13]: 3.12 µM (≈ 5.57 µg/mL) | MIC [14]: ≥ 200 µM
Structure (SMILES): CC[C@H](C)[C@H](NC(=O)[C@H](CCCCN)NC(=O)[C@H](CCCCN)NC(=O)[C@@H](N)Cc1c[nH]c2ccccc12)C(=O)N1CCC[C@H]1C(=O)N[C@@H](CCCCN)C(=O)N[C@@H](Cc1ccccc1)C(=O)N[C@@H](CC(C)C)C(=O)N[C@@H](Cc1cnc[nH]1)C(=O)N[C@@H](CC(C)C)C(=O)N[C@@H](C)C(=O)N[C@@H](CCCCN)C(=O)N[C@@H](CCCCN)C(=O)N[C@@H](Cc1ccccc1)C(N)=O [WKKIPKFLHLAKKF]

MIC [10]: 1.56 µM (≈ 4.44 µg/mL) | MIC [2]: 3.12 µM (≈ 8.9 µg/mL) | MIC [3]: 1.56 µM (≈ 4.44 µg/mL) | MIC [4]: 1.56 µM (≈ 4.44 µg/mL) | MIC [13]: 3.12 µM (≈ 8.9 µg/mL) | MIC [16]: 1.56 µM (≈ 4.44 µg/mL)
Structure (SMILES): CC[C@H](C)[C@H](NC(=O)[C@@H](NC(=O)[C@@H](N)CCCN=C(N)N)[C@@H](C)CC)C(=O)N[C@@H](CC(=O)O)C(=O)N[C@@H](CC(C)C)C(=O)N[C@@H](CC(C)C)C(=O)N[C@@H](C)C(=O)N[C@@H](CCCN=C(N)N)C(=O)N[C@H](C(=O)N[C@@H](CCCN=C(N)N)C(=O)N[C@@H](CCCN=C(N)N)C(=O)N1CCC[C@H]1C(=O)N[C@@H](CCC(N)=O)C(=O)N[C@@H](CCCCN)C(=O)N1CCC[C@H]1C(=O)N[C@@H](CCCCN)C(=O)N[C@@H](Cc1ccccc1)C(=O)N[C@H](C(=O)N[C@H](C(=O)N[C@H](C(=O)N[C@@H](Cc1c[nH]c2ccccc12)C(=O)N[C@H](C(=O)N[C@@H](CCCN=C(N)N)C(=O)O)C(C)C)C(C)C)[C@@H](C)O)C(C)C)C(C)C [RIIDLLARVRRPQKPKFVTVWVR]

MIC (Bacillus subtilis 168): 1.5 µM (≈ 6.35 µg/mL) | MIC [19]: 0.75 µM (≈ 3.17 µg/mL) | MIC (Staphylococcus aureus MR): 3.78 µM (≈ 16 µg/mL) | MIC [20]: 7.55 µM (≈ 32 µg/mL) | MIC [21]: 7.55 µM (≈ 32 µg/mL)
Structure (SMILES): CC[C@H](C)[C@@H]1NC(=O)[C@@H]2CSSC[C@@H]3NC(=O)[C@H](CCCCN)NC(=O)[C@H](CC(=O)O)NC(=O)[C@H](CCC(N)=O)NC(=O)[C@H](Cc4ccccc4)NC(=O)[C@H](Cc4ccccc4)NC(=O)[C@@H]4CCCN4C(=O)[C@@H](NC(=O)[C@H](Cc4ccc(O)cc4)NC(=O)[C@H](Cc4ccc(O)cc4)NC(=O)CNC(=O)CN)CSSC[C@H](NC(=O)[C@H](Cc4ccc(O)cc4)NC(=O)CNC(=O)[C@H](C)NC(=O)[C@H](CCCCN)NC(=O)[C@H](CCCN=C(N)N)NC(=O)CNC(=O)[C@H](Cc4ccccc4)NC(=O)[C@H](CO)NC(=O)[C@H](CCCN=C(N)N)NC(=O)[C@H](CSSC[C@@H](C(=O)N[C@H](C(=O)O)C(C)C)NC1=O)NC(=O)[C@H](Cc1cnc[nH]1)NC(=O)[C@H](CCCN=C(N)N)NC(=O)[C@H](Cc1cnc[nH]1)NC3=O)C(=O)NCC(=O)NCC(=O)N[C@@H](Cc1ccccc1)C(=O)N[C@@H](CC(C)C)C(=O)N[C@@H](CCCCN)C(=O)N[C@@H](CCCCN)C(=O)N[C@@H]([C@@H](C)O)C(=O)N2 [GGYYCPFFQDKCHRHCRSFGRKAGYCGGFLKKTCICV]
